Measured values as given in PMC10787358 (Science translational medicine, 2023).

Columns and labels:
SARS-CoV-2 = test system: SARS-CoV-2; design: species or system hACE2 transgenic mice; conditions: mouse, in vivo
[1] = test system: SARS-CoV-2 Beta and Delta variants; type: cell-based
[2] = test system: SARS-CoV-2 WT, Beta, Delta, Omicron BA.2; type: cell-based; conditions: UDCA 10 μM, ML364 4 μM, MS102 4 μM, 48 h

Compound	therapeutic effectiveness against SARS-CoV-2 infection (SARS-CoV-2)	inhibition of authentic SARS-CoV-2 variants [1]	inhibition of infection of Calu-3 cells by authentic SARS-CoV-2 (TCID50) [2]
Cc1ccc(S(=O)(=O)Nc2cc(C(F)(F)F)ccc2C(=O)Nc2nc(-c3ccccc3)cs2)cc1 [ML364]	substantial therapeutic potential	broad inhibition	–
Cc1ccc(S(=O)(=O)Nc2ccc(C(F)(F)F)cc2C(=O)Nc2nc(-c3ccc(Br)cc3)cs2)cc1 [MS102]	–	–	superior activity
C[C@H](CCC(=O)O)[C@H]1CC[C@H]2[C@@H]3[C@@H](O)C[C@@H]4C[C@H](O)CC[C@]4(C)[C@H]3CC[C@]12C [UDCA, ursodeoxycholic acid]	–	–	exhibited efficacy
